According to patent US9745319B2, “Irreversible covalent inhibitors of the GTPase K-Ras G12C” (Araxes Pharma LLC, priority 2013, dated 2017):

Biological target: T1, KRAS G12C 1-169, his-tagged protein, GDP-loaded (Homo sapiens, UniProt P01116, G12C)
T1 construct: KRAS G12C 1-169, his-tagged protein, GDP-loaded was diluted to 2 μm in buffer
Assay: Biochemical assay: covalent binding to KRAS G12C analyzed by mass spectrometry
Settings: protein diluted to 2 μm, room temperature for 24 hrs, method lists 100, 30 and 10 μM final compound concentration, not stated which applies
Description: Test compounds were prepared as 10 mM stock solutions in DMSO (Fisher cat# BP-231-100). KRAS G12C 1-169, his-tagged protein, GDP-loaded was diluted to 2 μm in buffer (20 mM Hepes, 150 mM NaCl, 1 mM MgCl2). Compounds were tested for activity as follows:
Compounds were diluted to 50× final test concentration in DMSO in 96-well storage plates. Compound stock solutions were vortexed before use and observed carefully for any sign of precipitation. Dilutions were as follow: • For 100 μM final compound concentration, compounds were diluted to 5000 μM (5 μl 10 mM compound stock +5 μl DMSO and mixed well by pipetting. • For 30 μM final compound concentration, compounds were diluted to 1500 μM (3 μl 10 mM compound stock +17 μl DMSO) and mixed well by pipetting. • For 10 μM final compound concentration, compounds were diluted to 500 μM (2 μl 10 mM compound stock +38 μl DMSO) and mixed well by pipetting. 49 μl of the stock protein solution was added to each well of a 96-well PCR plate (Fisher cat#1423027). 1 μl of the diluted 50× compounds were added to appropriate wells in the PCR plate using 12-channel pipettor. Reactions were mixed carefully and thoroughly by pipetting up/down with a 200 μl multi-channel pipettor. The plate was sealed well with aluminum plate seal, and stored in drawer at room temperature for 24 hrs. 5 μl of 2% formic acid (Fisher cat# A117) in DI H2O was then added to each well followed by mixing with a pipette. The plate was then resealed with aluminum seal and stored on dry ice until analyzed as described below.
The above described assays were analyzed by mass spectrometry according to the following procedure:
The MS instrument is set to positive polarity, 2 GHz resolution, and low mass (1700) mode and allowed to equilibrate for 30 minutes. The instrument is then calibrated, switched to acquisition mode and the appropriate method loaded.
After another 30 minute equilibration time, a blank batch (i.e., buffer) is run to ensure equipment is operating properly. The samples are thawed at 37° C. for 10 minutes, briefly centrifuged, and transfer to the bench top. Wells A1 and H12 are spiked with 1 uL 500 uM internal standard peptide, and the plates centrifuged at 2000×g for 5 minutes. The method is then run and masses of each individual well recorded.
The masses (for which integration data is desired) for each well are pasted into the platemap and exported from the analysis. Masses for the internal standards are exported as well. The data at 50 ppm is extracted for the +19 charge state, and identity of well A1 is assigned using the internal standard spike and integrated. Peak data is exported as a TOF list and the above steps are repeated individually, for the +20, 21, 22, 23, 24, and 25 charge states.

Compound	Binding %
C=Cc1cccc(S(=O)(=O)NCCOc2ccc3ccccc3c2)c1 [II-8]	+++ (+++ indicates binding activity from greater than 10% to 15%)
C=CS(=O)(=O)NCCOc1cccc2ccccc12 [II-2]	+++ (+++ indicates binding activity from greater than 10% to 15%)
C=Cc1ccccc1S(=O)(=O)NCCOc1ccc2ccccc2c1 [II-9]	++ (++ indicates binding activity from greater than 5% to 10%)
C=Cc1ccccc1S(=O)(=O)NC[C@H]1C[C@@H]2O[C@H](COCc3ccccc3)[C@@H](OCc3ccccc3)[C@@H]2O1 [Compound I-12]	+++ (+++ indicates binding activity from greater than 10% to 15%)
C=Cc1ccccc1S(=O)(=O)NCCNc1ccc2ccccc2c1 [II-13]	+++ (+++ indicates binding activity from greater than 10% to 15%)
C=Cc1cccc(S(=O)(=O)NC[C@H]2C[C@@H]3O[C@H](CO)[C@@H](OCc4ccccc4)[C@@H]3O2)c1 [Compound I-16]	++ (++ indicates binding activity from greater than 5% to 10%)
C=CS(=O)(=O)NC[C@@H]1C[C@@H]2O[C@H](COCc3ccccc3)[C@@H](OCc3ccccc3)[C@@H]2O1 [Compound I-5]	+++ (+++ indicates binding activity from greater than 10% to 15%)
C=CC(=O)NCC1C[C@@H]2O[C@H](CO)[C@@H](OCc3ccccc3)[C@@H]2O1 (some centres unmarked) [Compound I-1]	+ (+ indicates binding activity from 0.5% to 5%)
C=Cc1cccc(S(=O)(=O)NC[C@@H]2C[C@@H]3O[C@H](CO)[C@@H](OCc4ccccc4)[C@@H]3O2)c1 [Compound I-20]	+++ (+++ indicates binding activity from greater than 10% to 15%)
C=Cc1ccc(S(=O)(=O)NC[C@@H]2C[C@@H]3O[C@H](COCc4ccccc4)[C@@H](OCc4ccccc4)[C@@H]3O2)cc1 [Compound I-14]	+++ (+++ indicates binding activity from greater than 10% to 15%)
C=Cc1ccccc1S(=O)(=O)NC[C@@H]1C[C@@H]2O[C@H](COCc3ccccc3)[C@@H](OCc3ccccc3)[C@@H]2O1 [Compound I-15]	+++ (+++ indicates binding activity from greater than 10% to 15%)
C=Cc1ccc(S(=O)(=O)NCCOc2ccc3ccccc3c2)cc1 [II-6]	+++ (+++ indicates binding activity from greater than 10% to 15%)
C=Cc1ccccc1S(=O)(=O)NC[C@H]1C[C@@H]2O[C@H](CO)[C@@H](OCc3ccccc3)[C@@H]2O1 [Compound I-18]	+++ (+++ indicates binding activity from greater than 10% to 15%)
C=Cc1cccc(S(=O)(=O)NC[C@@H]2C[C@@H]3O[C@H](COCc4ccccc4)[C@@H](OCc4ccccc4)[C@@H]3O2)c1 [Compound I-13]	++++ (++++ indicates binding activity from greater than 15%)
C=CS(=O)(=O)NC[C@H]1C[C@@H]2O[C@H](CO)[C@@H](OCc3ccccc3)[C@@H]2O1 [Compound I-7]	++ (++ indicates binding activity from greater than 5% to 10%)
C=Cc1ccccc1S(=O)(=O)NCCOc1cccc2ccccc12 [II-12]	+++ (+++ indicates binding activity from greater than 10% to 15%)

Compound	Binding %
C=CS(=O)(=O)NCCOc1ccc2ccccc2c1 [II-1]	+++ (+++ indicates binding activity from greater than 10% to 15%)
C=Cc1cccc(S(=O)(=O)NC[C@H]2C[C@@H]3O[C@H](COCc4ccccc4)[C@@H](OCc4ccccc4)[C@@H]3O2)c1 [Compound I-11]	++ (++ indicates binding activity from greater than 5% to 10%)
C=Cc1ccc(S(=O)(=O)NCCNc2ccc3ccccc3c2)cc1 [II-5]	++ (++ indicates binding activity from greater than 5% to 10%)
C=Cc1ccc(S(=O)(=O)NC[C@H]2C[C@@H]3O[C@H](COCc4ccccc4)[C@@H](OCc4ccccc4)[C@@H]3O2)cc1 [Compound I-10]	++++ (++++ indicates binding activity from greater than 15%)
C=CS(=O)(=O)NC[C@H]1C[C@@H]2O[C@H](COCc3ccccc3)[C@@H](OCc3ccccc3)[C@@H]2O1 [Compound I-6]	+++ (+++ indicates binding activity from greater than 10% to 15%)
C=CC(=O)NC[C@@H]1C[C@@H]2O[C@H](CO)[C@@H](OCc3ccccc3)[C@@H]2O1 [Compound I-2]	+ (+ indicates binding activity from 0.5% to 5%)
C=CC(=O)NC[C@H]1C[C@@H]2O[C@H](COCc3ccccc3)[C@@H](OCc3ccccc3)[C@@H]2O1 [Compound I-3]	+ (+ indicates binding activity from 0.5% to 5%)
C=CS(=O)(=O)NCCNc1ccc2ccccc2c1 [II-4]	++ (++ indicates binding activity from greater than 5% to 10%)
C=Cc1ccccc1S(=O)(=O)NCCNc1cccc2ccccc12 [II-11]	++++ (++++ indicates binding activity from greater than 15%)
C=Cc1ccc(S(=O)(=O)NC[C@H]2C[C@@H]3O[C@H](CO)[C@@H](OCc4ccccc4)[C@@H]3O2)cc1 [Compound I-9]	+++ (+++ indicates binding activity from greater than 10% to 15%)
C=Cc1ccc(S(=O)(=O)NC[C@H]2C[C@@H]3O[C@H](CO)[C@@H](OCc4ccccc4)[C@@H]3O2)cc1 [Compound I-19]	++ (++ indicates binding activity from greater than 5% to 10%)
C=Cc1ccc(S(=O)(=O)NCCNc2cccc3ccccc23)cc1 [II-10]	+++ (+++ indicates binding activity from greater than 10% to 15%)
C=Cc1cccc(S(=O)(=O)NCCOc2cccc3ccccc23)c1 [II-7]	++ (++ indicates binding activity from greater than 5% to 10%)
C=CS(=O)(=O)NCCNc1cccc2ccccc12 [II-3]	+++ (+++ indicates binding activity from greater than 10% to 15%)
C=CC(=O)NC[C@@H]1C[C@@H]2O[C@H](COCc3ccccc3)[C@@H](OCc3ccccc3)[C@@H]2O1 [Compound I-4]	+ (+ indicates binding activity from 0.5% to 5%)
C=Cc1ccccc1S(=O)(=O)NC[C@@H]1C[C@@H]2O[C@H](CO)[C@@H](OCc3ccccc3)[C@@H]2O1 [Compound I-17]	++++ (++++ indicates binding activity from greater than 15%)
